Reference: patent US6924302B2, “Substituted triazole diamine derivatives as kinase inhibitors” (Ortho McNeil Pharmaceutical, Inc., priority 2000, dated 2005)

Legend:
HCT-116 colon carcinoma = assay: Inhibition of Cell Proliferation (14C-thymidine incorporation), HCT-116; type: cell-based; settings: Homo sapiens, HCT-116 cell line
How it was run: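 3000-8000 cells/well, 24 h preculture; cmpd in DMSO 24 h; + 0.2 uCi/well methyl 14C-thymidine (56 mCi/mmol) 24 h with drug; 37° C, 5% CO2; PBS wash x2; scintillation count of label incorporated; DMSO controls.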

[1] = molecular target: T1, Casein Kinase 1 (CK1 delta isoform) (Rattus norvegicus, UniProt Q06486); assay: Kinase Selectivity Assay Casein Kinase 1; type: biochemical; settings: Tables 2a-2k, read-out: Caseine Kinase 1 IC50
T1 construct: a truncation at amino acid 318 of the C-terminal portion of the rat CK1 delta isoform; purchased New England Biolabs 6030; host or cells: E. coli
T1 sequence (Q06486 1-317): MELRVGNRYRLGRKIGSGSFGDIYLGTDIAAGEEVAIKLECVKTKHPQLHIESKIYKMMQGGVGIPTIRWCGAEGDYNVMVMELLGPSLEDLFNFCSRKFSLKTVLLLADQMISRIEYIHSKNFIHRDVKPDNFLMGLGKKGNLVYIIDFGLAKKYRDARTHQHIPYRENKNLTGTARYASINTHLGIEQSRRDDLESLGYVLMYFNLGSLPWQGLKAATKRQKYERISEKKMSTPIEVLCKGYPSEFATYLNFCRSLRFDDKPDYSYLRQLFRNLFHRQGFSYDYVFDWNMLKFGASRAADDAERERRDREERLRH
How it was run: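 Inhibition was measured as reduced ^33P-γ-ATP labelling of a biotinylated peptide substrate immobilized on streptavidin plates after one hour at 30° C.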

SMILES	IC50 (HCT-116 colon carcinoma) [nM]	IC50 [1] [nM]
Cc1ccsc1C(=O)n1nc(Nc2ccc(N3CCCS3(=O)=O)cc2)nc1N [Cpd 116, N^3-[4-(1,1-dioxido-2-isothiazolidinyl)phenyl]-1-[(3-methyl-2-thienyl)carbonyl]-1H-1,2,4-triazole-3,5-diamine]	349	> 1000
Nc1nc(Nc2ccc(N3CCCS3(=O)=O)cc2)nn1C(=O)c1c(F)cccc1F [Cpd 117]	1120	13500
Nc1nc(Nc2ccc(S(=O)(=O)Nc3ccccn3)cc2)nn1C(=O)c1c(F)cccc1F [Cpd 118, 4-[[5-amino-1-(2,6-difluorobenzoyl)-1H-1,2,4-triazol-3-yl]amino]-N-(2-pyridinyl)-benzenesulfonamide]	1170	> 100000
Cc1cc(C)c(C(=O)n2nc(Nc3ccc(S(=O)(=O)Nc4ccccn4)cc3)nc2N)s1 [Cpd 120]	334	> 10000
Cc1ccc(F)c(C(=O)n2nc(N)nc2Nc2ccc(S(N)(=O)=O)cc2)c1F [Cpd 123, 4-[[3-amino-1-(2,6-difluoro-3-methylbenzoyl)-1H-1,2,4-triazol-5-yl]amino]-benzenesulfonamide]	4140	> 100000
